The text below walks through data of patent publication US20190382850A1, “METHOD FOR IDENTIFYING MITOCHONDRIAL DNA IN EXTRACELLULAR VESICLES AND TREATMENT OF MTDNA-RELATED DISORDERS AND CANCER” (Memorial Sloan-Kettering Cancer Center, priority 2017, published 2019).

The test system of assay [1] is Jak2. In words: EV mtDNA copy number from CAFs in hypoxia reoxygenation ± Jak2 inhibitor. It counts as cell-based. The settings on record: 500 nM every 3 days, FIG. 14. The method, then:
FIG. 14 reports that hypoxia reoxygenation culture condition increases EV mtDNA copy number in a Jak2-Stat(s) dependent manner. 10-cm plates with 10^6 cells (CAFs) were cultured in 1% O2 (hypoxia) for 4 days and 3 days in normal culture conditions (20% O2, hyperoxia) in presence/absence of Jak2 inhibitor (500 nM every 3 days). Conditioned media for EV isolation and DNA level from EVs was analyzed. As control, EVs from 20% O2, hyperoxia were also collected and analyzed. MtDNA as copy number is shown as bar graphs, mean±error bars of ND1 level obtained from EV-DNA (10 ng total DNA).

The test system of assay [2] is HTS cells. Put plainly: Proliferation in presence of OXPHOS inhibitors ± HT. The settings on record: with and without fulvestrant. The class given is cell-based, human. The method, then: FIG. 8 reports that OXPHOS inhibition abrogates HTR disease. (Panel a), Proliferation potential as determined by in vitro cell growth (CalceinAM) in luminal (ER+) and triple negative cancer cell lines cultured in media with increasing concentration of glucose. (Panel b), Oxygen consumption rates (OCR)±oligomycin (200 nM)/rotenone (100 nM) in MCF7 and MDA-MB-231 cells as determined by seahorse technology. (Panel c), Desmin immunohistochemical images of CAFs in HTS/HTR-derived tissues (scale bar 25 μm). (Panel d), Schematic analysis of the generation of metastatic HTR disease in mice. […] Metastatic burden was analyzed by BLI and at necropsy by histological examination (H&E). (Panel e), Proliferation potential in presence of oligomycin (100 nM) and ±HT as determined by in vitro BLI in metastatic cells from HTS and HTR cells FACS purified from xenografts (FIG. 2a). […] (Panel f), mtDNA/nDNA level in circulating EVs from HTR xenografts as determined by copy number (GAPDH, ND1: qPCR Fold change). […]
For immunoblotting assays, cells were lysed in buffer (50 mmol/L Tris at pH 7.5, 150 mmol/L NaCl, 5 μg/mL aprotinin, pepstatin, 1% NP-40, lmmol/L EDTA, 0.25% deoxycholate, and protease inhibitor cocktail tablet, Sigma). […] The enrichment of CAFs in xenografts was determined by desmin immunohistochemistry (IHC) in tumor-derived sections. […]

Assay [3] has as its system mu-mtDNAhi HTR cells. The assay is described as above. The settings on record: with and without fulvestrant; atovaquone 1 μM, rotenone 100 nM, oligomycin 200 nM; FIG. 2f, 8e. The class given is cell-based, human. From the text:
(Panel a) Representative tumor growth kinetics (BLI) of GFP+/Luciferase+MCF7 xenografts (n=10) treated with weekly fulvestrant once mammary fat pad tumors were established (after 3 months) which led to a period (4 months) of disease stability on HT (HTS) followed by exponential growth on HT (HTR). Representative H&E images of tumors and primary cultures from unsorted as well as FACS purified cancer cells (GFP+/Epcam+) and murine CAFs (GFP−/Epcam). Scale bar 20 μm. (Panel b) OXPHOS potential in tumor-derived cancer cells (panel a) was measured±HT (fulvestrant, 10 μM) by Seahorse. […] (Panel d) Percentage of metastatic lesions isolated by FACS from tumor-bearing mice (n=8/group) expressing murine mtDNA as determined by ND1 qPCR (2 ng of total DNA). Oxygen consumption rates (OCR) in murine-mtDNApos and ctrl HTR cells determined by Seahorse. (Panel e) Murine mitochondrial RNA expression (12 genes: ND1, ND2, COX2, ATP8, ATP6, COX3, ND3, ND4L, ND4, ND5, ND6, CytB) as fold change (logioscale) determined by qRT-PCR in HTR and HTS cells (panel a). […]
FIG. 8 reports that OXPHOS inhibition abrogates HTR disease. (Panel a), Proliferation potential as determined by in vitro cell growth (CalceinAM) in luminal (ER+) and triple negative cancer cell lines cultured in media with increasing concentration of glucose. […]

For assay [4], the system named is MCF7 model metastases. Put plainly: Metastatic assay: mastectomy followed by adjuvant HT in MCF7 tumor-bearing mice. It counts as in vivo. As to conditions: adjuvant tamoxifen after mastectomy, followed ~9 months. As for the experimental part:
FIG. 8 reports that OXPHOS inhibition abrogates HTR disease. (Panel a), Proliferation potential as determined by in vitro cell growth (CalceinAM) in luminal (ER+) and triple negative cancer cell lines cultured in media with increasing concentration of glucose. (Panel b), Oxygen consumption rates (OCR)±oligomycin (200 nM)/rotenone (100 nM) in MCF7 and MDA-MB-231 cells as determined by seahorse technology. (Panel c), Desmin immunohistochemical images of CAFs in HTS/HTR-derived tissues (scale bar 25 μm). (Panel d), Schematic analysis of the generation of metastatic HTR disease in mice. […] Metastatic burden was analyzed by BLI and at necropsy by histological examination (H&E). (Panel e), Proliferation potential in presence of oligomycin (100 nM) and ±HT as determined by in vitro BLI in metastatic cells from HTS and HTR cells FACS purified from xenografts (FIG. 2a). Error bars, mean±s.d. of BLI from n=3 samples. (Panel f), mtDNA/nDNA level in circulating EVs from HTR xenografts as determined by copy number (GAPDH, ND1: qPCR Fold change). Data are reported as error bars, mean±s.d. of n=3 independent experiments (a, e-g). *P<0.05 (Student's t-test) and GLM anova after multiple comparisons (a).
All cancer cell lines were engineered to express a GFP positive luciferase expression vector for in vitro and in vivo imaging studies. […] EV-number was determined by Nanosight. […]

In the case of `Cc1cc(Nc2nc(N[C@@H](C)c3ncc(F)cn3)ncc2Cl)[nH]n1` [AZD 1490], the “generation of mtDNA high EVs” value in assay [1] is given as “hampering the generation of mtDNA high EVs”.
For the compound `CC[C@H]1/C=C/C=C/C[C@@H](C)[C@H](O)[C@@](C)(O)C(=O)[C@@H](C)[C@H](O)[C@@H](C)C(=O)[C@@H](C)[C@H](O)[C@@H](C)/C=C/C(=O)O[C@@H]2[C@H](C)[C@H](CC1)O[C@]1(CC[C@H](C)[C@H](C[C@@H](C)O)O1)[C@H]2C` [oligomycin], the “combined effect with HT on cell proliferation and/or cell death of HTS cells” value in assay [2] is given as “no synergistic effect”. Also, the “sensitivity of HTR cells to HT (proliferation)” value in assay [3] is listed as “re-sensitized HTR cells to HT”.
Consider `C=C(C)[C@H]1Cc2c(ccc3c2O[C@@H]2COc4cc(OC)c(OC)cc4[C@@H]2C3=O)O1` [rotenone], for which the “combined effect with HT on cell proliferation and/or cell death of HTS cells” value in assay [2] is on record as “no synergistic effect”. For the same compound, the “sensitivity of HTR cells to HT (proliferation)” value in assay [3] is “re-sensitized HTR cells to HT”.
In the case of `CC/C(=C(\c1ccccc1)c1ccc(OCCN(C)C)cc1)c1ccccc1` [tamoxifen], in assay [4], the “HT treated mice with no evidence of disease” value was 90% and the “HT treated mice with wide-spread (>20) HTR metastases involving multiple organs” value is 10%.
